The experiment deals with Mycobacterium tuberculosis variant bovis. The experiment can be described thus: Antibacterial activity against Mycobacterium bovis BCG assessed as reduction in cell viability measured after 14 days by microdrop agar proportion test. Type of experiment: functional. The settings on record: 336 h, time 14 day.

≈ marks a conversion by molar mass, not a printed value.

This passage reports MIC results from ChEMBL document CHEMBL5252530, “Biological importance of structurally diversified chromenes” (Eur J Med Chem, 2016).

As usually defined, the MIC is the smallest concentration in the dilution series that meets the test's criterion for growth inhibition. In the case of `COC(=O)c1ccc(C(=O)Oc2ccc3c(c2)OC(C)(C)C=C3C)cc1`, the MIC is 2 µg/mL (≈ 5.68 µM).
